Experiments:
BCL2 WT = BCL2 WT (Homo sapiens (Human), UniProt P10415); assay: TR-FRET competitive binding assay, BCL2 WT; conditions: Ki determined from IC50, read-out: TR_FRET EKI_Bcl2 WT
In short: (§1)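 Ki derived from IC50 (11-point dilution, 520/495 nm emission ratio) for displacing a fluorescein-labelled PUMA peptide (2 or 20 nM). Target was 0.5 nM E. coli-expressed Halo-tagged BCL2 (1-207) or BCLXL (2-196), terbium-labelled on Halo. Incubation 2 h at 23°C in pH 7.5 Hepes with 150 mM NaCl and 5% DMSO.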

BCL2 G101V [1] = target: BCL2 G101V (Homo sapiens, UniProt P10415, G101V); assay: TR-FRET competitive binding assay, BCL2 G101V; conditions: BCL2 G101V; Ki determined from IC50; read-out: TR_FRET EKI_Bcl2 G101V
In short: as §1

BCL2 G101V [2] = assay: TR-FRET competitive binding assay, BCL2 G101V; design: species or system human; conditions: ratio Ki BCL2 G101V / Ki BCL2 WT
In short: as §1

BCL2 D103Y = BCL2 D103Y (Homo sapiens, UniProt P10415, D103Y); assay: TR-FRET competitive binding assay, BCL2 D103Y; conditions: Ki determined from IC50, read-out: TR_FRET EKI_Bcl2 D103Y
In short: as §1

BCL2 F104I = BCL2 F104I (Homo sapiens, UniProt P10415, F104I); assay: TR-FRET competitive binding assay, BCL2 F104I; conditions: Ki determined from IC50, read-out: TR_FRET EKI_Bcl2 F104I
In short: as §1

BCL2 D111A = BCL2 D111A (Homo sapiens, UniProt P10415, D111A); assay: TR-FRET competitive binding assay, BCL2 D111A; conditions: Ki determined from IC50, read-out: TR_FRET EKI_Bcl2 D111A
Experimental: The relative binding potency of each compound was determined in a competitive binding assay using time resolved-fluorescence resonance energy transfer (TR-FRET). The method utilised a fluorescein labelled peptide derived from PUMA (5Flu-Ahx-[…]-NH2 wherein Ahx means 6-hexanoic acid monomer and the amino acid sequence is referred to as SEQ ID:01) which binds to a terbium labelled BCL2 or BCLXL protein. The degree of binding or corresponding compound inhibition can be quantified by the TR-FRET signal between the terbium donor and fluorescein acceptor.
The human BCL2_wild-type (also named BCL2_wt), BCL2_G101V mutant and BCLXL_wild-type were E. coli expressed as a N-terminal Halo-fusion proteins and singly labelled with Terbium on the Halo protein to afford the following amino acid sequences:
wherein the BCL2(1-207) sequence corresponds to UniProtKB® primary accession number P10415 and the BCLXL(2-196) sequence corresponds to UniProtKB® primary accession number Q07817-1.
The assay was performed in a 40 μL volume in white 384-standard well plates (Corning #3574). An 11-point serial dilution of each compound was prepared in DMSO and transferred directly to plate followed by addition of fluorescein labelled peptide and lastly protein. Final assay conditions were 0.5 nM BCL2_wt, BCL2_G101V, BCL2_D103Y, BCL2_F104I, BCL2_D111A or BCLXL_wt, 2 or 20 nM fluorescein labelled peptide, 50 mM Hepes pH 7.5, 150 mM NaCl, 0.5 mM TCEP (Tris(2-carboxyethyl)phosphine), 0.05% Tween 20, 5% DMSO. The mixture was incubated for 2 hours at 23° C.
TR-FRET measurements were performed on a Biotek Synergy Neo plate reader. TR-FRET was measured by excitation of the Terbium-donor at 340 nm and subsequent (delay time 100 μs) measurement of terbium and fluorescein emission at 495 nm and 520 nm, respectively, over a collection time of 300 μs. The TR-FRET signal was calculated as the emission-ratio at 520 nm over 495 nm.
The TR-FRET ratio readout for test compounds was normalized against 0% inhibition controls wells and 100% inhibition control wells. Test compound potency (IC50) was estimated by nonlinear regression using the sigmoidal dose-response (variable slope) using Xlfit 4 (IDBS, Guildford, Surrey, UK, model 205). Were the IC50 could not be determined the % inhibition at the highest tested concentration is given.
y=(A+((B−A)/(1+((C/x)^D))))
where y is the normalized TR-TRET ratio measurement for a given concentration of test compound, x is the concentration of test compound, A is the estimated efficacy (% inhibition) at infinite compound dilution, and B is the maximal efficacy (% inhibition). C is the IC50 value and D is the Hill slope coefficient.
The K1 values were determined from the IC50 values according to Cer et al, Nucleic Acids Res, 2009, July 1; 37 (WebServer issue): W441-W445.

BCLXL WT = BCLXL WT (Homo sapiens (Human), UniProt Q07817); assay: TR-FRET competitive binding assay, BCLXL WT; conditions: for Ki: BCLXL WT, Ki determined from IC50, read-out: TR_FRET EKI BclxL; for TR_FRET EKI BCLxL/WT selectivty ratio: ratio Ki BCLxL / Ki BCL2 WT
In short: as §1

KMS-12-PE Bcl-2 WT = assay: In vitro cytotoxicity CellTiter-Glo 48 h, KMS-12-PE Bcl-2 WT; type: cell-based; conditions: C50 = concentration needed to reach 50% of the cellular viability
In short: (§2)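 CTG luminescence read-out; C50 = concentration reaching 50% cellular viability. Cells: KMS-12-PE expressing Bcl-2 WT or G101V (lentiviral, TagRFP-sorted). 11-pt curve, 48 h, 37 °C/5% CO2.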

KMS-12-PE Bcl-2 G101V = assay: In vitro cytotoxicity CellTiter-Glo 48 h, KMS-12-PE Bcl-2 G101V; type: cell-based; conditions: for Ratio (G101V/WT): C50 KMS-12-PE Bcl-2 G101V over C50 KMS-12-PE Bcl-2 WT; for IC50: 48 h, CellTiter-Glo, C50 = concentration needed to reach 50% of the cellular viability
In short: as §2

BCLXL WT, sequence (Q07817 other isoform, or with tags, fused parts or gaps): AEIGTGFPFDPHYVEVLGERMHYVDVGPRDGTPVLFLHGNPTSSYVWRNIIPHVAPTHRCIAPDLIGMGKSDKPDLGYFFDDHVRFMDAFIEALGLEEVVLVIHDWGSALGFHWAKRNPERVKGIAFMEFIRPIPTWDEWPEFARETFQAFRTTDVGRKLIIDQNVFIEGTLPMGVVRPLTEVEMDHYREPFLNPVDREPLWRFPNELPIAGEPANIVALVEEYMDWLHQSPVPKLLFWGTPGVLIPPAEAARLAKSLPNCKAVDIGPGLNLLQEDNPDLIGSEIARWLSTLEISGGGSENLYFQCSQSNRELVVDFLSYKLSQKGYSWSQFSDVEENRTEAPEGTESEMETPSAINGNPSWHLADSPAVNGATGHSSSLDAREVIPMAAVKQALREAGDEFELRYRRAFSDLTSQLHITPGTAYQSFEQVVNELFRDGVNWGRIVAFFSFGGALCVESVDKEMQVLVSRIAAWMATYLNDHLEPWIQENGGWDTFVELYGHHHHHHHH

SMILES	Ki (BCL2 WT)	Ki (BCL2 G101V [1])	TR_FRET EKI G101V/WT selectivty ratio (BCL2 G101V [2])	Ki (BCL2 D103Y)	Ki (BCL2 F104I)	Ki (BCL2 D111A)	Ki (BCLXL WT)	TR_FRET EKI BCLxL/WT selectivty ratio (BCLXL WT)	IC50 (KMS-12-PE Bcl-2 WT; Homo sapiens, KMS-12-PE)	Ratio (G101V/WT) (KMS-12-PE Bcl-2 G101V)	IC50 (KMS-12-PE Bcl-2 G101V; Homo sapiens, KMS-12-PE)	IC50 (KMS-12-PE Bcl-2 WT)	IC50 (KMS-12-PE Bcl-2 G101V)
Cc1c(N(C(=O)c2cc(-c3cc4c(cc3C(=O)N3Cc5ccccc5C[C@H]3C)CN(C(=O)C(F)(F)c3ccccc3)CC4)n(C)c2C)c2ccc(O)cc2)cc(C#N)n1C [Example 18, N-(5-cyano-1,2-dimethylpyrrol-3-yl)-5-[2-(2,2-difluoro-2-phenylacetyl)-7-{[(3R)-3-methyl-3,4-dihydro-1H-isoquinolin-2-yl]carbonyl}-3,4-dihydro-1H-isoquinolin-6-yl]-N-(4-hydroxyphenyl)-1,2-dimethylpyrrole-3-carboxamide]	0.3 nM	4.2 nM	14.0	1.23 nM	53.5 nM	2.65 nM	30.2 nM	100.7	0.0055 µM	8.67	0.0477 µM		
Cc1c(N(C(=O)c2cc(-c3cc4c(cc3C(=O)N3Cc5ccccc5C[C@H]3C)CN(C(=O)C3CCN(c5ccccc5)C3=O)CC4)n(C)c2C)c2ccc(O)cc2)cc(C#N)n1C (stereo partly drawn) [Example 29]	0.67 nM	6.9 nM	10.3	0.98 nM	78 nM	1.29 nM	13.1 nM	19.6		3.62		0.0164 µM	0.0594 µM
Cc1c(N(C(=O)c2cc(-c3cc4c(cc3C(=O)N3Cc5ccccc5C[C@H]3C)CN(C(=O)Cc3ccc(OCCN5CCC(O)CC5)cc3)CC4)n(C)c2C)c2ccc(O)cc2)cc(C#N)n1C [Example 30, N-(5-cyano-1,2-dimethyl-1H-pyrrol-3-yl)-N-(4-hydroxyphenyl)-5-[2-(2-{4-[2-(4-hydroxypiperidin-1-yl)ethoxy]phenyl}acetyl)-7-[(3R)-3-methyl-1,2,3,4-tetrahydroisoquinoline-2-carbonyl]-1,2,3,4-tetrahydroisoquinolin-6-yl]-1,2-dimethyl-1H-pyrrole-3-carboxamide]	0.1 nM	0.2 nM	1.9	0.19 nM	0.26 nM	0.12 nM	1.1 nM	11.6	0.0191 µM	4.76	0.0909 µM		
Cc1c(N(C(=O)c2cc(-c3cc4c(cc3C(=O)N3Cc5ccccc5C[C@H]3C)CN(C(=O)Cc3ccc(OCCN5CCN(C6CC6)CC5)cc3)CC4)n(C)c2C)c2ccc(O)cc2)cc(C#N)n1C [Example 31, N-(5-cyano-1,2-dimethyl-1H-pyrrol-3-yl)-5-[2-(2-{4-[2-(4-cyclopropylpiperazin-1-yl)ethoxy]phenyl}acetyl)-7-[(3R)-3-methyl-1,2,3,4-tetrahydroisoquinoline-2-carbonyl]-1,2,3,4-tetrahydroisoquinolin-6-yl]-N-(4-hydroxyphenyl)-1,2-dimethyl-1H-pyrrole-3-carboxamide]	0.11 nM	0.3 nM	2.6	0.4 nM	0.52 nM	0.26 nM	1.3 nM	11.8	0.0077 µM	4.05	0.0312 µM		
Cc1c(N(C(=O)c2cc(-c3cc4c(cc3C(=O)N3Cc5ccccc5C[C@H]3C)CN(C(=O)Cc3ccc(OCCN(C)C5CC5)cc3)CC4)n3c2CCCC3)c2ccc(O)cc2)cc(C#N)n1C [Example 35, N-(5-cyano-1,2-dimethyl-pyrrol-3-yl)-3-[2-[2-[4-[2-[cyclopropyl(methyl)amino]ethoxy]phenyl]acetyl]-7-[(3R)-3-methyl-3,4-dihydro-1H-isoquinoline-2-carbonyl]-3,4-dihydro-1H-isoquinolin-6-yl]-N-(4-hydroxyphenyl)-5,6,7,8-tetrahydroindolizine-1-carboxamide]	0.26 nM	0.7 nM	2.6	1.35 nM	0.77 nM	0.27 nM	2.6 nM	10.0	0.0068 µM	3.75	0.0254 µM		
Cc1c(N(C(=O)c2cc(-c3cc4c(cc3C(=O)N3Cc5ccccc5C[C@H]3C)CN(C(=O)Cc3ccc(OCCN5CCN6CCOC[C@@H]6C5)cc3)CC4)n(C)c2C)c2ccc(O)cc2)cc(C#N)n1C [Example 36, 5-{2-[2-(4-{2-[(9aS)-octahydropyrazino[2,1-c][1,4]oxazin-8-yl]ethoxy}phenyl)acetyl]-7-[(3R)-3-methyl-1,2,3,4-tetrahydroisoquinoline-2-carbonyl]-1,2,3,4-tetrahydroisoquinolin-6-yl}-N-(5-cyano-1,2-dimethyl-1H-pyrrol-3-yl)-N-(4-hydroxyphenyl)-1,2-dimethyl-1H-pyrrole-3-carboxamide]	0.11 nM	0.3 nM	2.5	0.33 nM	0.16 nM	0.06 nM	1.4 nM	12.7	0.0103 µM	3.75	0.0386 µM		
